The record followed here is ChEMBL document CHEMBL1201862, “PubChem BioAssay data set” (2004).

In one assay the target is Perilipin-1/ABHD5 (Homo sapiens, UniProt O60240+Q8WTS1). Description: Luminescence-based biochemical high throughput dose response assay for inhibitors of the interaction of the lipase co-activator protein, abhydrolase domain containing 5 (ABHD5) with perilipin-1 (PLIN1) (2K validation set). [Related pubchem assays (depositor defined):AID493027, AID493057].
In assay [1] the target is Neurotensin receptor type 1 (Homo sapiens, UniProt P30989). In kind it is functional.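 Further: Image-based confirmatory dose-response assay measuring agonist activity at NTR1; NTR1-expressing U2OS osteosarcoma cells imaged for beta-arrestin GFP spot formation; agonist potency where compounds increase beta-arrestin recruitment.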
Chain of Neurotensin receptor type 1 (P30989 whole entry, the tested form may be a part): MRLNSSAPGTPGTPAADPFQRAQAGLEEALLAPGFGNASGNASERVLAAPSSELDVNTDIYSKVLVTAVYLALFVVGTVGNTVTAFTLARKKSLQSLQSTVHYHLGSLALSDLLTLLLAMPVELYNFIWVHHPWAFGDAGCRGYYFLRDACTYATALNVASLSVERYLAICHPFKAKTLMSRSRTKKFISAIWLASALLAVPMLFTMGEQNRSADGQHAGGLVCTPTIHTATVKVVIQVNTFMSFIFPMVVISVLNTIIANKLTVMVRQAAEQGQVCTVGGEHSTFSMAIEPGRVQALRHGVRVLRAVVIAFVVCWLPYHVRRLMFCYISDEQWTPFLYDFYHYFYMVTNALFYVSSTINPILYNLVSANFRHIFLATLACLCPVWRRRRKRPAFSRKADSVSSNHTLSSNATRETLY
For assay [2], the target named is 1-acylglycerol-3-phosphate O-acyltransferase ABHD5/Perilipin-5 (Homo sapiens, UniProt Q00G26+Q8WTS1). The assay is described as follows: Luminescence-based biochemical high throughput dose response assay for inhibitors of the interaction of the lipase co-activator protein, abhydrolase domain containing 5 (ABHD5) with perilipin-5 (MLDP; PLIN5) (2K validation set). [Related pubchem assays (depositor defined):AID493035, AID493241].
Chain of 1-acylglycerol-3-phosphate O-acyltransferase ABHD5/Perilipin-5 (Q00G26 whole entry, the tested form may be a part): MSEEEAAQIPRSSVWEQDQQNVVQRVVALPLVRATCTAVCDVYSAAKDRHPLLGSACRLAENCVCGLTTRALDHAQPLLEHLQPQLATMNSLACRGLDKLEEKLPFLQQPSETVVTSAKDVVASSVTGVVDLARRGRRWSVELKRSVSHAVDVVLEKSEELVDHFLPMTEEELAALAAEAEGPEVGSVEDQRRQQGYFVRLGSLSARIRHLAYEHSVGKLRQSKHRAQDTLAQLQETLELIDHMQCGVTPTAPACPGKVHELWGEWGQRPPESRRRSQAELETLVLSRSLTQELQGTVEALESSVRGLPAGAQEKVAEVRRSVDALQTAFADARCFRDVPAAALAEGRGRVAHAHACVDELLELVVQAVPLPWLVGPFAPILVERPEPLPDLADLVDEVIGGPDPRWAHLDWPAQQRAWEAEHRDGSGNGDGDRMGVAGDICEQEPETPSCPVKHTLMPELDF
Chain of 1-acylglycerol-3-phosphate O-acyltransferase ABHD5/Perilipin-5 (Q8WTS1 whole entry, the tested form may be a part): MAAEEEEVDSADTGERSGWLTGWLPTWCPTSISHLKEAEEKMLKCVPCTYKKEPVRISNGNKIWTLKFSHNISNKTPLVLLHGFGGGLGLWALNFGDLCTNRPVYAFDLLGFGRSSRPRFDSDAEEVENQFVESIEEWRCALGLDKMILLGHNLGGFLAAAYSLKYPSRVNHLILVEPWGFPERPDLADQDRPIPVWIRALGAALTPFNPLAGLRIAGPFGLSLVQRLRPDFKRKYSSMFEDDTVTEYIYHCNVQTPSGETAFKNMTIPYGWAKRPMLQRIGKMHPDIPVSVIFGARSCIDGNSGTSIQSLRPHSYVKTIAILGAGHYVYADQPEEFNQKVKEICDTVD

The next assay deals with Saccharomyces cerevisiae. The assay is described as follows: NALP1 inhibitor project selectivity study, Caspase-1/ASC signal blockade IC50 in S. cerevisiae (AID 488863). Format: functional, organism-based.
In assay [3] the target is NACHT, LRR and PYD domains-containing protein 1 (Homo sapiens, UniProt Q9C000). The assay is described as follows: NALP1 inhibitors in yeast, dose response, luminescent (AID 488860). In kind it is functional.
Chain of NACHT, LRR and PYD domains-containing protein 1 (Q9C000 1-1212 limits assumed): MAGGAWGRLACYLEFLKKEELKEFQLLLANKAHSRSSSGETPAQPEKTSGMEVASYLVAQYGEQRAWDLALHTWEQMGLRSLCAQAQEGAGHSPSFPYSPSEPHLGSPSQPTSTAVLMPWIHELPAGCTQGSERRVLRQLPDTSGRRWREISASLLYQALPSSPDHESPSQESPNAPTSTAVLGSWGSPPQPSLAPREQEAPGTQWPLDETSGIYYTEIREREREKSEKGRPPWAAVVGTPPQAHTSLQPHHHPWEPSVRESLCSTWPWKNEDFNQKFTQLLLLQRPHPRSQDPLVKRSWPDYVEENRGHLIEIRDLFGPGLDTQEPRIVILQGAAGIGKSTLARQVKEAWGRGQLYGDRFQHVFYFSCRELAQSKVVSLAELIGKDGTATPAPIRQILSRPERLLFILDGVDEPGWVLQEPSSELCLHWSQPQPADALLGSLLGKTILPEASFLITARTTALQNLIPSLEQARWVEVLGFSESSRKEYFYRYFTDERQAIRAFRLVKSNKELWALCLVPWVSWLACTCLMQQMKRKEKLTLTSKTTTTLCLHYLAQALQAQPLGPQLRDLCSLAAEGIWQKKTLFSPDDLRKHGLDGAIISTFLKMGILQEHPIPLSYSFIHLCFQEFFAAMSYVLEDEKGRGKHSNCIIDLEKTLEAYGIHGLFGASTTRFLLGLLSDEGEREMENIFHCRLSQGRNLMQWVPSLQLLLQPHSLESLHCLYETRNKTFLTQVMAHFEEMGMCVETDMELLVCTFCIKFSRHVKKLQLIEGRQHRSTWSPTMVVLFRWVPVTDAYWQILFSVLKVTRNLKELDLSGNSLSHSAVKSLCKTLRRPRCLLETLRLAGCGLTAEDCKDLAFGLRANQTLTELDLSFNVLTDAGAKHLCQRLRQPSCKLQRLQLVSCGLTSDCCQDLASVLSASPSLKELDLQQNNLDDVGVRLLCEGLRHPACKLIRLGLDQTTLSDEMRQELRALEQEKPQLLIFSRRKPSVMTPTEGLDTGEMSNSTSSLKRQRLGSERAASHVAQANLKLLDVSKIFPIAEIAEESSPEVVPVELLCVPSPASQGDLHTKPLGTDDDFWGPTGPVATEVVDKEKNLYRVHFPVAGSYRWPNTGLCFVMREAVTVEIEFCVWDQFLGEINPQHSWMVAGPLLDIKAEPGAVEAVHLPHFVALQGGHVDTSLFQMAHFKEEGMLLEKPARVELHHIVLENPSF
Chain of NACHT, LRR and PYD domains-containing protein 1 (Q9C000 1213-1473 limits assumed): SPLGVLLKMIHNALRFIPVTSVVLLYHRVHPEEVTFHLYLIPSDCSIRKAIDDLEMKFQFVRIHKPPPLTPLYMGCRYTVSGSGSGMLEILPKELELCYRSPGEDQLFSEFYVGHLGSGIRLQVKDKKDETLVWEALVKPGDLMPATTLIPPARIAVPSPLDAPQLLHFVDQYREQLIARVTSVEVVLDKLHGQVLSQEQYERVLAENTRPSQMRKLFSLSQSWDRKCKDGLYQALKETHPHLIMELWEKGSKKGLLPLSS
The next assay concerns the target T1, Streptokinase A (Streptococcus pyogenes serotype M1, UniProt P10520).
T1 sequence (P10520 whole entry): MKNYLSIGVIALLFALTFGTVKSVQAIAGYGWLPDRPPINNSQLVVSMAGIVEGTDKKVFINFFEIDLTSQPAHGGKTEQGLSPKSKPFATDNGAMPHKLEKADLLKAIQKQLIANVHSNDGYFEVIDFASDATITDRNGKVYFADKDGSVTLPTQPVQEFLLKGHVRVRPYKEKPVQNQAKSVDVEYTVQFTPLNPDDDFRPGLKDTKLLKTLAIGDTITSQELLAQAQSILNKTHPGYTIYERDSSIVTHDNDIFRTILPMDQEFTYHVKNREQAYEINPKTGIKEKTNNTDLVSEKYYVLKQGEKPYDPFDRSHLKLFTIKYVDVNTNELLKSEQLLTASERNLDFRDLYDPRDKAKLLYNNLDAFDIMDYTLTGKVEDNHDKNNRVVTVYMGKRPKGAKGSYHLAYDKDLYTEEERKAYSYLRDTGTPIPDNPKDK
Description: S. pyogenes streptokinase expression inhibitors, potency, dose response, plasminogen activation absorbance, OD405 (AID 1914).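 Further: secreted streptokinase activity via plasminogen activation per viability signal from cell pellet.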 In kind it is functional, Streptococcus pyogenes M1 GAS.

Assay [4] deals with Streptococcus sp. 'group A'. Description: growth inhibition of control SK(-) GAS strain, dose response, counter-screen for streptokinase expression inhibitor project, luminescence, kanamycin, BacTiterGlo, confirmation (AID 1900). Format: functional, organism-based. (In general: The purpose of a counterscreen is to sort out artefacts and off-target activity.)
The target in assay [5] is G-protein coupled receptor 35 (Homo sapiens, UniProt Q9HC97). Description: GPR35 antagonists blocking zaprinast-driven arrestin recruitment, primary screen, imaging, U2OS, beta-arrestin-GFP, zaprinast agonist (AID 2058).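 Further: antagonist potency meaning inhibition of agonist-induced arrestin redistribution.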 Format: functional. A general note: Arrestin recruitment assays detect the binding of arrestin to an activated receptor.
Chain of G-protein coupled receptor 35 (Q9HC97 whole entry): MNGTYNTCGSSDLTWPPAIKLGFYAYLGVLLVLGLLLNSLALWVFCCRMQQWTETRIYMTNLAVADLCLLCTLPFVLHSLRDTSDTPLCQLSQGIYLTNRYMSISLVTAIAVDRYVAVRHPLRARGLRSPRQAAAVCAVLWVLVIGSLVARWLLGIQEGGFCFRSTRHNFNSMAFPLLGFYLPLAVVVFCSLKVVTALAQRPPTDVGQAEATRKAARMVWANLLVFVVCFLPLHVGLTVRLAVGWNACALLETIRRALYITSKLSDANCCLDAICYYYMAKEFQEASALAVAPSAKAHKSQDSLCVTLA
A further assay has as its system Streptococcus. Description: Group A Streptococcus viability loss, dose response, counter-screen for streptokinase expression inhibitor project, luminescence, BacTiterGlo (AID 1915).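 Further: potency for reduction of bacterial viability or growth.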 Format: functional, organism-based.
A further assay relates to Trypanosoma cruzi. The assay is described as follows: growth inhibition of intracellular Trypanosoma cruzi, dose response, cell-based, plate reader, dry powder, set 3 (AID 493197). Format: functional.
A short description of assay [6]: cytotoxicity in NIH/3T3 mouse fibroblasts, dose response, cytotoxicity control, cell-based, mouse embryonic fibroblasts, dry powder, set 2 (AID 493247). In kind it is functional. The following applies: Fibroblast.
The target of another assay is T2, Caspase-3 (Homo sapiens, UniProt P42574).
T2 sequence (P42574 whole entry): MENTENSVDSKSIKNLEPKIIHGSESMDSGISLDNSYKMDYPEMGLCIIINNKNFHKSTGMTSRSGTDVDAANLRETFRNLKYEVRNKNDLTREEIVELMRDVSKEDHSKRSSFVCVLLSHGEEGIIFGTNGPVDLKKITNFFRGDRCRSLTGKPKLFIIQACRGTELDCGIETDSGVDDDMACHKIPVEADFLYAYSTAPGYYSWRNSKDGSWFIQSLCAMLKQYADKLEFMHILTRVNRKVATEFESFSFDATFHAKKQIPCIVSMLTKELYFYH
The assay is described as follows: procaspase-3 activation potency of dual hits, dose response, counter-screen for dual procaspase-3/7 activator project, biochemical, absorbance, PC-3 D3A mutant (AID 504328).

The next assay addresses Caspase-7 (Homo sapiens, UniProt P55210). Description: procaspase-7 activators, dose response, dual procaspase-3/-7 activator project, biochemical, absorbance, human (AID 504330).

Calls of active or inactive are those of the source.

Chain of Perilipin-1/ABHD5 (Q8WTS1 whole entry, the tested form may be a part): as the sequence (Q8WTS1 whole entry, the tested form may be a part) above
Chain of Perilipin-1/ABHD5 (O60240 whole entry, the tested form may be a part): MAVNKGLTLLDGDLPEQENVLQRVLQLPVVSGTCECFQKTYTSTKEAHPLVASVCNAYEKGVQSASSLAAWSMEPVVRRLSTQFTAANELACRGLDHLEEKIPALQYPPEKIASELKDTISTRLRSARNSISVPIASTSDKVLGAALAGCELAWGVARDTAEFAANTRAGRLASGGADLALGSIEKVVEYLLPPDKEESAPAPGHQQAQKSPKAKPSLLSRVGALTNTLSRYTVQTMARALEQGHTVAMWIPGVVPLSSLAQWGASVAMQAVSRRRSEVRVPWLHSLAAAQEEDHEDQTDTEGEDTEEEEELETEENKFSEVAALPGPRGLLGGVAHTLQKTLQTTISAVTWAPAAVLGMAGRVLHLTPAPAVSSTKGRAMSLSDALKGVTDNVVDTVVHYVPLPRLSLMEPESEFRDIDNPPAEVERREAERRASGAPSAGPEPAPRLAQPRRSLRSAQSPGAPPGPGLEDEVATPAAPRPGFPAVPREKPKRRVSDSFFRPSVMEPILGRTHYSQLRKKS

For orientation: IC50 means the concentration needed to halve the response being measured. Broadly, the EC50 is the concentration giving half of the maximal effect. For the molecule `O=C1ON=C(c2ccc(Cl)cc2)/C1=C/c1ccc(O)cc1`, the half-maximal inhibitory concentration (IC50) is 2.28 µM (active) at Perilipin-1/ABHD5 and 3.1 µM (active) in assay [2]. Besides, the EC50 in assay [1] was 8.29 µM (active).
On to `O=C(NCCCc1ccccc1)c1ccccc1O`, for which the IC50 with Saccharomyces cerevisiae is 11.5 µM (active); in assay [3], 13.1 µM (active).
Consider `CC(C)c1ccc(N2C(=O)/C(=C/N(C)C)SC2=S)cc1`, for which the EC50 at Streptokinase A is 5.29 µM (active); in [4], 3.85 µM (active); in the assay on Streptococcus, 57 µM (active). Moreover, in assay [5], the IC50 is 0.835 µM (active).
As usually defined, the AC50 is the midpoint of the concentration-response curve, whichever way the signal moves. `COc1ccc(CCN(C)C(=O)C2CCCN(Cc3ccc(F)cc3)C2)cc1OC` (stereo not drawn): the AC50 was 4.33 µM (active) in the assay with Trypanosoma cruzi and 64.7 µM (active) in assay [6].
In the case of `COc1ccc(-c2cc(C(=O)OC3CCOC3=O)c3ccccc3n2)cc1OC` (stereo not drawn), the EC50 on Caspase-3 and at Caspase-7 was > 85.3 µM (inactive) each time.
